Where a name gives a salt, the structure may show the parent alone.
What was measured:
p38alpha = biological target: T1, p38alpha (Homo sapiens, UniProt Q16539); assay: P38Alpha enzyme inhibition assay (Alphascreen kinase activity assay); type: biochemical; conditions: 100 pM p38alpha, 250 μM ATP, 2 hours pre-incubation at 25° C., read-out: p38α inhibition (IC50 values)
T1 construct: purchased Invitrogen PV3304
In short: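 AlphaScreen read-out: after an EDTA stop, an anti-phospho-ATF2 antibody with Protein A acceptor and donor beads measured substrate phosphorylation. Compounds sat 2 h at 25°C with 100 pM p38α and 0.3 µg/ml ATF-2 fusion protein (pH 7.5, 1% DMSO) before 250 µM ATP was added for 1 h. IC50 from dose-response.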

[1] = system: LPS-stimulated TNFα release from PBMCs; assay: LPS-stimulated PBMC TNFα release assay; type: cell-based; conditions: inhibition of TNFα release, human PBMCs, LPS 10 ng/ml, 18 h, ELISA, read-out: p38α inhibition (IC50 values)
In short: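 TNFα in supernatants measured by ELISA after 18 h LPS (10 ng/ml) challenge of human PBMCs given 1 h compound pretreatment at 37 °C in medium with 1% FBS. Percent inhibition versus control release fitted to dose-response curves for IC50; at least three independent runs.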

T1 sequence (Q16539 whole entry): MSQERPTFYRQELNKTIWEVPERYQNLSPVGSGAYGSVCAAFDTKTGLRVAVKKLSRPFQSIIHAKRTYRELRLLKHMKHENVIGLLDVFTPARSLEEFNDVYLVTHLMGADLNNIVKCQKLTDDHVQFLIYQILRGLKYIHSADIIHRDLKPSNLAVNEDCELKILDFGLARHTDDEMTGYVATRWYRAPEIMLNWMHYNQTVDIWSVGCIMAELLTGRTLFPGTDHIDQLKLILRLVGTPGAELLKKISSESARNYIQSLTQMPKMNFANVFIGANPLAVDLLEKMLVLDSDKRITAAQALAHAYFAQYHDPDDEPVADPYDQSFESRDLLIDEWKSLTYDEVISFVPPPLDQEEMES

## CC(C)(C)c1cc(NC(=O)N[C@H]2CC[C@@H](Oc3ccc4nnc(N5CCCCC5)n4c3)c3ccccc32)n(-c2cccc(CN3CCN(CCO)CC3)c2)n1 [Example 50, 1-(5-tert-Butyl-2-{3-[4-(2-hydroxy-ethyl)-piperazin-1-ylmethyl]-phenyl}-2H-pyrazol-3-yl)-3-[(1S,4R)-4-(3-piperidin-1-yl-[1,2,4]triazolo[4,3-a]pyridin-6-yloxy)-1,2,3,4-tetrahydro-naphthalen-1-yl]-urea]
p38alpha
  IC50: < 0.01 µM
[1]
  IC50: < 0.01 µM

## CC(C)(C)c1cc(NC(=O)N[C@H]2CC[C@@H](Oc3ccc4nnc(N5CCCCC5)n4c3)c3ccccc32)n(-c2cccc(CN3CCC(O)CC3)c2)n1 [Example 52, 1-{5-tert-Butyl-2-[3-(4-hydroxy-piperidin-1-ylmethyl)-phenyl]-2H-pyrazol-3-yl}-3-[(1S,4R)-4-(3-piperidin-1-yl-[1,2,4]triazolo[4,3-a]pyridin-6-yloxy)-1,2,3,4-tetrahydro-naphthalen-1-yl]-urea]
p38alpha
  IC50: < 0.01 µM
[1]
  IC50: < 0.01 µM

## CC(C)(C)c1cc(NC(=O)N[C@H]2CC[C@@H](Oc3ccc4nnc(N5CCCCC5)n4c3)c3ccccc32)n(-c2cccc(SCCO)c2)n1 [Example 53, 1-{5-tert-Butyl-2-[3-(2-hydroxy-ethylsulfanyl)-phenyl]-2H-pyrazol-3-yl}-3-[(1S,4R)-4-(3-piperidin-1-yl-[1,2,4]triazolo[4,3-a]pyridin-6-yloxy)-1,2,3,4-tetrahydro-naphthalen-1-yl]-urea]
p38alpha
  IC50: < 0.01 µM
[1]
  IC50: < 0.01 µM

## Cc1ccc(-n2nc(C(C)(C)C)cc2NC(=O)N[C@H]2CC[C@@H](Oc3ccc4nnc(N5CCC(CO)CC5)n4c3)c3ccccc32)cc1 [Example 54, 1-(5-tert-Butyl-2-p-tolyl-2H-pyrazol-3-yl)-3-{(1S,4R)-4-[3-(4-hydroxymethyl-piperidin-1-yl)-[1,2,4]triazolo[4,3-a]pyridin-6-yloxy]-1,2,3,4-tetrahydro-naphthalen-1-yl}-urea]
p38alpha
  IC50: < 0.01 µM
[1]
  IC50: < 0.01 µM

## Cc1ccc(-n2nc(C(C)(C)C)cc2NC(=O)N[C@H]2CC[C@H](Oc3ccc4nnc(N5CCCCC5)n4c3)c3ccccc32)cc1 [Example 55, 1-(5-tert-Butyl-2-p-tolyl-2H-pyrazol-3-yl)-3-[(1S,4S)-4-(3-piperidin-1-yl-[1,2,4]triazolo[4,3-a]pyridin-6-yloxy)-1,2,3,4-tetrahydro-naphthalen-1-yl]-urea]
p38alpha
  IC50: < 0.01 µM
[1]
  IC50: < 0.01 µM

## CC(C)(C)c1cc(NC(=O)N[C@H]2CC[C@@H](Oc3ccc4nnc(N5CCC(O)CC5)n4c3)c3ccccc32)n(-c2ccc(CO)cc2)n1 [Example 57, 1-[5-tert-Butyl-2-(4-hydroxymethyl-phenyl)-2H-pyrazol-3-yl]-3-{(1S,4R)-4-[3-(4-hydroxy-piperidin-1-yl)-[1,2,4]triazolo[4,3-a]pyridin-6-yloxy]-1,2,3,4-tetrahydro-naphthalen-1-yl}-urea]
p38alpha
  IC50: < 0.01 µM
[1]
  IC50: 0.01 to 0.1 µM

## Cc1ccc(-n2nc(C(C)(C)C)cc2NC(=O)N[C@H]2CC[C@@H](Oc3ccc4nnc([C@@H]5CCCN5C(C)C)n4c3)c3ccccc32)cc1 [Example 58, 1-(5-tert-Butyl-2-p-tolyl-2H-pyrazol-3-yl)-3-{(1S,4R)-4-[3-((S)-1-isopropyl-pyrrolidin-2-yl)-[1,2,4]triazolo[4,3-a]pyridin-6-yloxy]-1,2,3,4-tetrahydro-naphthalen-1-yl}-urea]
p38alpha
  IC50: < 0.01 µM
[1]
  IC50: < 0.01 µM

## Cc1ccc(-n2nc(C(C)(C)C)cc2NC(=O)N[C@H]2CC[C@@H](Oc3ccc4nnc(N(C)C)n4c3)c3ccccc32)cc1 [Example 59, 1-(5-tert-Butyl-2-p-tolyl-2H-pyrazol-3-yl)-3-[(1S,4R)-4-(3-dimethylamino-[1,2,4]triazolo[4,3-a]pyridin-6-yloxy)-1,2,3,4-tetrahydro-naphthalen-1-yl]-urea]
p38alpha
  IC50: < 0.01 µM
[1]
  IC50: < 0.01 µM

## Cc1ccc(-n2nc(C(C)(C)C)cc2NC(=O)N[C@H]2CC[C@@H](Oc3ccc4nnc([C@H]5CCCN5C)n4c3)c3ccccc32)cc1 [Example 60, 1-(5-tert-Butyl-2-p-tolyl-2H-pyrazol-3-yl)-3-{(1S,4R)-4-[3-((R)-1-methyl-pyrrolidin-2-yl)-[1,2,4]triazolo[4,3-a]pyridin-6-yloxy]-1,2,3,4-tetrahydro-naphthalen-1-yl}-urea]
p38alpha
  IC50: < 0.01 µM
[1]
  IC50: < 0.01 µM

## CCN1CCC[C@H]1c1nnc2ccc(O[C@@H]3CC[C@H](NC(=O)Nc4cc(C(C)(C)C)nn4-c4ccc(C)cc4)c4ccccc43)cn12 [Example 61, 1-(5-tert-Butyl-2-p-tolyl-2H-pyrazol-3-yl)-3-{(1S,4R)-4-[3-((S)-1-ethyl-pyrrolidin-2-yl)-[1,2,4]triazolo[4,3-a]pyridin-6-yloxy]-1,2,3,4-tetrahydro-naphthalen-1-yl}-urea]
p38alpha
  IC50: < 0.01 µM
[1]
  IC50: < 0.01 µM

## Cc1ccc(-n2nc(C(C)(C)C)cc2NC(=O)N[C@H]2CC[C@@H](Oc3ccc4nnc([C@@H]5CCCCN5C)n4c3)c3ccccc32)cc1 [Example 62, 1-(5-tert-Butyl-2-p-tolyl-2H-pyrazol-3-yl)-3-{(1S,4R)-4-[3-((S)-1-methyl-piperidin-2-yl)-[1,2,4]triazolo[4,3-a]pyridin-6-yloxy]-1,2,3,4-tetrahydro-naphthalen-1-yl}-urea]
p38alpha
  IC50: < 0.01 µM
[1]
  IC50: < 0.01 µM

## Cc1ccc(-n2nc(C(C)(C)C)cc2NC(=O)N[C@H]2CC[C@@H](Oc3ccc4nnc(N5CCC[C@H](O)C5)n4c3)c3ccccc32)cc1 [Example 63, 1-(5-tert-Butyl-2-p-tolyl-2H-pyrazol-3-yl)-3-{(1S,4R)-4-[3-((S)-3-hydroxy-piperidin-1-yl)-[1,2,4]triazolo[4,3-a]pyridin-6-yloxy]-1,2,3,4-tetrahydro-naphthalen-1-yl}-urea]
p38alpha
  IC50: < 0.01 µM
[1]
  IC50: < 0.01 µM

## Cc1ccc(-n2nc(C(C)(C)C)cc2NC(=O)N[C@H]2CC[C@@H](Oc3ccc4nnc(N5CCC[C@@H](O)C5)n4c3)c3ccccc32)cc1 [Example 64, 1-(5-tert-Butyl-2-p-tolyl-2H-pyrazol-3-yl)-3-{(1S,4R)-4-[3-((R)-3-hydroxy-piperidin-1-yl)-[1,2,4]triazolo[4,3-a]pyridin-6-yloxy]-1,2,3,4-tetrahydro-naphthalen-1-yl}-urea]
p38alpha
  IC50: < 0.01 µM
[1]
  IC50: < 0.01 µM

## CN1CCCC[C@H]1c1nnc2ccc(O[C@@H]3CC[C@H](NC(=O)Nc4cc(C(C)(C)C)nn4-c4ccc(CO)cc4)c4ccccc43)cn12 [Example 65, 1-[5-tert-Butyl-2-(4-hydroxymethyl-phenyl)-2H-pyrazol-3-yl]-3-{(1S,4R)-4-[3-((S)-1-methyl-piperidin-2-yl)-[1,2,4]triazolo[4,3-a]pyridin-6-yloxy]-1,2,3,4-tetrahydro-naphthalen-1-yl}-urea, partial formate salt]
p38alpha
  IC50: < 0.01 µM
[1]
  IC50: < 0.01 µM

## Cc1ccc(-n2nc(C(C)(C)C)cc2NC(=O)N[C@H]2CC[C@@H](Oc3ccc4nnc(N5CCC(CCO)CC5)n4c3)c3ccccc32)cc1 [Example 66, 1-(5-tert-Butyl-2-p-tolyl-2H-pyrazol-3-yl)-3-{(1S,4R)-4-[3-(4-hydroxyethyl-piperidin-1-yl)-[1,2,4]triazolo[4,3-a]pyridin-6-yloxy]-1,2,3,4-tetrahydro-naphthalen-1-yl}-urea]
p38alpha
  IC50: < 0.01 µM
[1]
  IC50: < 0.01 µM

## Cc1ccc(-n2nc(C(C)(C)C)cc2NC(=O)N[C@H]2CC[C@@H](Oc3ccc4nnc(N5CCCCCC5)n4c3)c3ccccc32)cc1 [Example 67, 1-[(1S,4R)-4-(3-Azepan-1-yl-[1,2,4]triazolo[4,3-a]pyridin-6-yloxy)-1,2,3,4-tetrahydro-naphthalen-1-yl]-3-(5-tert-butyl-2-p-tolyl-2H-pyrazol-3-yl)-urea]
p38alpha
  IC50: < 0.01 µM
[1]
  IC50: < 0.01 µM

## Cc1ccc(-n2nc(C(C)(C)C)cc2NC(=O)N[C@H]2CC[C@@H](Oc3ccc4nnc(N5CCN(C)CC5)n4c3)c3ccccc32)cc1 [Example 68, 1-(5-tert-Butyl-2-p-tolyl-2H-pyrazol-3-yl)-3-{(1S,4R)-4-[3-(4-methyl-piperazin-1-yl)-[1,2,4]triazolo[4,3-a]pyridin-6-yloxy]-1,2,3,4-tetrahydro-naphthalen-1-yl}-urea]
p38alpha
  IC50: < 0.01 µM
[1]
  IC50: < 0.01 µM

## Cc1ccc(-n2nc(C(C)(C)C)cc2NC(=O)N[C@H]2CC[C@@H](Oc3ccc4nnc(N5CCCN(C)CC5)n4c3)c3ccccc32)cc1 [Example 69, 1-(5-tert-Butyl-2-p-tolyl-2H-pyrazol-3-yl)-3-{(1S,4R)-4-[3-(4-methyl-[1,4]diazepan-1-yl)-[1,2,4]triazolo[4,3-a]pyridin-6-yloxy]-1,2,3,4-tetrahydro-naphthalen-1-yl}urea]
p38alpha
  IC50: < 0.01 µM
[1]
  IC50: < 0.01 µM

## CC(C)(C)c1cc(NC(=O)N[C@H]2CC[C@@H](Oc3ccc4nnc(N5CCCCC5)n4c3)c3ccccc32)n(-c2ccc(O)cc2)n1 [Example 70, 1-[5-tert-Butyl-2-(4-hydroxy-phenyl)-2H-pyrazol-3-yl]-3-[(1S,4R)-4-(3-piperidin-1-yl-[1,2,4]triazolo[4,3-a]pyridin-6-yloxy)-1,2,3,4-tetrahydro-naphthalen-1-yl]-urea]
p38alpha
  IC50: < 0.01 µM
[1]
  IC50: < 0.01 µM

## CC(C)(C)c1cc(NC(=O)N[C@H]2CC[C@@H](Oc3ccc4nnc(N5CCCCC5)n4c3)c3ccccc32)n(-c2ccc(C#N)cc2)n1 [Example 71, 1-[5-tert-Butyl-2-(4-cyano-phenyl)-2H-pyrazol-3-yl]-3-[(1S,4R)-4-(3-piperidin-1-yl-[1,2,4]triazolo[4,3-a]pyridin-6-yloxy)-1,2,3,4-tetrahydro-naphthalen-1-yl]-urea]
p38alpha
  IC50: < 0.01 µM
[1]
  IC50: < 0.01 µM

Source: US9315503B2, “Kinase inhibitors” (CHIESI FARMACEUTICI S.p.A., priority 2011, dated 2016)
